Test results taken from US6916844B2, “Hydroxy pyranone derivative and preparation method thereof” (Amorepacific Corporation, priority 2002, dated 2005).

Key:
Human fibroblasts [1] = assay: Effect on biosynthesis of collagen (procollagen type (I) ELISA); assay type: cell-based; details: 10^-4 M, 24 hours, relative to untreated control group = 100
Experimental: The effect of the hydroxy pyranone derivatives obtained in Examples 1˜6 on biosynthesis of collagen was compared with those of retinol and retinoic acid.
Human fibroblasts were seeded into a 24-well plate to a density of 10^5 cells/well and then cultured to 90% of growth. The plate was washed with PBS (phosphate buffered saline) and treated with test samples at a concentration of 10^−4M, and then incubated in a CO2 incubator for 24 hours. From its supernatant, procollagen production was measured with procollagen type (I) ELISA kit. The biosynthesis of collagen was evaluated as a relative value compared with that of the control group, which is not treated with sample and of which the value of biosyntheis of collagen was set to be 100.

Human fibroblasts [2] = assay: Collagenase-inhibiting effect (collagenase expression, ELISA kit); assay type: cell-based; details: 10^-4 M, 24 hours, relative to untreated control group = 100
Experimental: The collagenase-inhibiting effect of hydroxy pyranone derivatives obtained in Examples 1˜6 was compared with those of retinol and retinoic acid.
Human fibroblasts were cultured in Dulbecco's Modified Eagle's Medium (DMEM) supplemented with 2.5% fetal bovine serum. The fibroblasts were seeded into a 96-well microtiter plate to a density of 5,000 cells/well, and then cultured to 70˜80% of growth. The plate was treated with test samples at a concentration of 10^−4M for 24 hours, then the cultured medium and the cells were raked up and recovered. From the recovered culture, collagenase production was measured with collagenase kit (Catalog #: RPN 2610) commercialized by Amersham Pharmacia Biotech. First, the recovered culture was added into a 96-well plate wherein primary collagenase antibodies were uniformly spread, and then antigen-antibody reaction was performed in an incubator for 3 hours. Later, secondary collagenase antibodies bonded with chromophore were added to the 96-well plate and reacted for 15 minutes. Then, color former was added thereto in order to induce development at the room temperature for 15 minutes, and 1M of sulfuric acid was added to stop the reaction. The reaction solution became yellow, and the color density depends on the progress of the reaction. The absorbance of the yellow 96-well plate was measured at 405 nm with absorptiometer. The expression of collagenase was calculated by the following equation 1. No sample was treated in the control group.
[Equation 1] The expression of collagenase (%)=[(Absorbance of test group)/(Absorbance of control group)]×100
The expression of collagenase was evaluated as a relative value compared with that of the control group of which the expression of collagenase was set to be 100.

rabbits = assay: Primary skin irritation test on animals (Draize P.I.I.); assay type: in vivo; details: 1% in 1,3-butylene glycol:ethanol=7:3, 0.5 ml, observed 24 and 72 hours later
Experimental: This test was performed for six (6) healthy male rabbits whose hairs on both sides of the backs were cut. The compounds of Examples 1˜6 were dissolved in 1,3-butylene glycol:ethanol=7:3, to obtain 1% concentration of test samples. 0.5 ml of each test samples were applied to right side area of 2.5 cm×2.5 cm. No sample was treated on left side as a control. 24 hours and 72 hours later, skin abnormality such as erythema, crust and edema was observed. Based on the score of skin response, skin irritation was estimated according to Draize's P.I.I. (Primary Irritation Index) and compared with that of retinoic acid.

white guinea pigs = assay: Phototoxicity test; assay type: in vivo; details: 1% (w/v) solution, UVA 15 J/cm^2, observed at 24, 48 and 72 hours; for Phototoxic index: below 0.5 = no phototoxicity
Experimental: This test was performed for ten (10) white guinea pigs whose hairs on both sides of the backs were cut, and fixed. On the back of the guinea pig, six (6) test sites measuring 2.5 cm×2.5 cm, three (3) per each side, were sectioned. Right sites were prepared as controls with no irradiation (UV non-irradiation sites) and left sites were irradiated (UV irradiation sites). Vehicle (1,3-butylene glycol:ethanol=7:3) was used as a negative control, and 0.1% concentration of 8-MOP (methoxypsoralene) was used as a positive control; and 1% (w/v) solutions of the compounds of Examples 1˜6 were applied to either site with an amount of […] for each site. 30 minutes later, right sites were shielded with aluminum foil and UVA(320˜380 nm) was irradiated at a distance of about 10 cm therefrom with Waldmann to the final energy of 15 J/cm^2. After 24, 48 and 72 hours elapsed, skin response of guinea pig was observed. Erythema and edema were scored from 0 to 4 points as shown in the Table 3, and skin response was evaluated by summing the scores. Maximum scores were selected when measured on each elapsed time, i.e. 24, 48 and 72 hours, and irritation index was calculated according to the following equation 2. Then, phototoxic index was calculated according to the following equation 3.
[Equation 2] Irritation index=(Maximum of erythema+Maximum of edema)/Number of animals [Equation 3] Phototoxic index=(Irritation index of UV irradiation site)−(Irritation index of UV non-irradiation site)

[3] = tested on: healthy females and males; assay: Human patch test; assay type: in vivo; details: 1% in patch base; for Average Response (n = 30): calculated by equation 4, below 1 = no irritation; for Number of the subjected showing response, 24 hours later, − (No visible response) / Number of the subjected showing response, 24 hours later, ± (Mild erythema) / Number of the subjected showing response, 24 hours later, + (Intense erythema) / Number of the subjected showing response, 24 hours later, + + (Intense erythema with edema) / Number of the subjected showing response, 24 hours later, + + + (Intense erythema with edema and vesicle): n = 30, 24 hours later; for Number of the subjected showing response, 24 hours later, − (No visible response) / Number of the subjected showing response, 48 hours later, − (No visible response): grade 0; for Number of the subjected showing response, 24 hours later, ± (Mild erythema) / Number of the subjected showing response, 48 hours later, ± (Mild erythema): grade 1; for Number of the subjected showing response, 24 hours later, + (Intense erythema) / Number of the subjected showing response, 48 hours later, + (Intense erythema): grade 2; for Number of the subjected showing response, 24 hours later, + + (Intense erythema with edema) / Number of the subjected showing response, 48 hours later, + + (Intense erythema with edema): grade 3; for Number of the subjected showing response, 24 hours later, + + + (Intense erythema with edema and vesicle) / Number of the subjected showing response, 48 hours later, + + + (Intense erythema with edema and vesicle): grade 4; for Number of the subjected showing response, 48 hours later, − (No visible response) / Number of the subjected showing response, 48 hours later, ± (Mild erythema) / Number of the subjected showing response, 48 hours later, + (Intense erythema) / Number of the subjected showing response, 48 hours later, + + (Intense erythema with edema) / Number of the subjected showing response, 48 hours later, + + + (Intense erythema with edema and vesicle): n = 30, 48 hours later
Experimental: This test was performed for thirty (30) healthy females and males aged on average 24.8 years and having no experience of hypersensitivity, according to method of CTFA Guideline (The Cosmetic, Toiletry and Fragrance Association. Inc. Washington, D.C., 20023, 1991). Each compound of Examples 1˜6 was dissolved in patch base having the composition of Table 6 to be 1% concentration as for test materials, and 20 μl of each test materials was dropped into a Finn chamber respectively, then attached to the forearm of the subject and fixed with a micropore tape. After 24 hours of patching, the patches were removed and the test sites were marked with marking pen. The observations of the test sites were made after 24 and 48 hours from the patching.
The average response of Table 8 was calculated by the following equation 4. [formula]

Compound	Biosynthesis of collagen (%) (Human fibroblasts [1])	Expression of collagenase (%) (Human fibroblasts [2])	Evaluation (skin irritation) (rabbits)	P. I. I. (Primary Irritation Index) (rabbits)	Evaluation (phototoxicity) (white guinea pigs)	Phototoxic index (white guinea pigs)	Average Response (n = 30) [3]	Number of the subjected showing response, 24 hours later, − (No visible response) [3]	Number of the subjected showing response, 24 hours later, ± (Mild erythema) [3]	Number of the subjected showing response, 24 hours later, + (Intense erythema) [3]	Number of the subjected showing response, 24 hours later, + + (Intense erythema with edema) [3]	Number of the subjected showing response, 24 hours later, + + + (Intense erythema with edema and vesicle) [3]	Number of the subjected showing response, 48 hours later, − (No visible response) [3]	Number of the subjected showing response, 48 hours later, ± (Mild erythema) [3]	Number of the subjected showing response, 48 hours later, + (Intense erythema) [3]	Number of the subjected showing response, 48 hours later, + + (Intense erythema with edema) [3]	Number of the subjected showing response, 48 hours later, + + + (Intense erythema with edema and vesicle) [3]
((3E)-4-(2H,3H-benzo [3,4-d] 1,3-dioxolan-5-yl)-2-oxobut-3-enyloxy)-5-hydroxy-4H-pyran-4-one [Compound of Ex. 3]	123%	78%	No irritation	0.375	No phototoxicity	0	0.00	30	0	0	0	0	30	0	0	0	0
O=c1cc(/C=C/c2ccc3c(c2)OCCO3)occ1O [Compound of Ex. 6, 2-((1E)-2-(2H,3H-benzo [3,4-e] 1,4-dioxan-6-yl)vinyl)-5-hydroxy-4H-pyran-4-one]	115%	84%	No irritation	0.315	No phototoxicity	0	0.00	30	0	0	0	0	30	0	0	0	0
O=C(/C=C/c1ccc2c(c1)OCCO2)COc1cc(=O)c(O)co1 [Compound of Ex. 4, 2-((3E)-4-(2H,3H-benzo [3,4-e] 1,4-dioxan-6-yl)-2-oxobut-3-enyloxy)-5hydroxy-4-pyran-4-one]	122%	77%	No irritation	0.350	No phototoxicity	0	0.42	29	1	0	0	0	30	0	0	0	0
CC1=C(/C=C/C(C)=C/C=C/C(C)=C/C(=O)O)C(C)(C)CCC1 [Retinoic acid, reference compound]	125%	75%	Light irritation	1.830	–	–	–	–	–	–	–	–	–	–	–	–	–
